Like-named read-outs stand apart in the source and are kept apart here.
Experiments:
[1] = tested on: Plasmodium falciparum Dd2 asexual blood stage parasites; experiment: microbe, parasite or virus in culture; set-up: species or system Plasmodium falciparum Dd2 in human erythrocytes; single determination (one 11-point concentration-response curve); conditions: Plasmodium falciparum, DD2, Erythrocyte, 72 h
[2] = in vitro; conditions: human
[3] = HepG2-A16-CD81EGFP cells, uninfected

| Structure (SMILES) | AC50 ([1]; read-out: AC50) [µM] | viability at 48 h, 1 µM [2, 3] [%] | viability at 48 h, 3 µM [2, 3] [%] | viability at 66 h [2, 3] [%] | further results |
| --- | --- | --- | --- | --- | --- |
| CCCc1cc(=O)oc2cc(C)cc(OCC(=O)Nc3cccnc3)c12 [MLS001160340-01] | 0.531 | 106 | 99 |  |  |
| CCOC(=O)c1cnc2ccc(OC)cc2c1Nc1ccc(N2CCN(C)CC2)cc1 [MLS001164177-01] | 1.68 | 98 | 94 |  |  |
| CC(C)Oc1ccc(C(CCNCc2ccc(O)cc2)c2ccccc2)cc1 (stereo not drawn) [MLS001164341-01] | 0.668 |  |  | 102 |  |
| Oc1ccccc1Nc1nc(-c2ccccc2O)nc2ccccc12 [MLS001164904-01] | 0.944 |  |  | 101 |  |
| C#CCN1c2ccccc2Sc2cccnc21 [MLS001166384-01] | 6.68 |  |  | 99.6 |  |
| CCCN1CCc2c(sc3nc(SC)n(-c4ccccc4)c(=O)c23)C1 [MLS001173550-01] | 2.66 | 112 | 101 |  |  |
| OC(CNC1CCCCCC1)COc1cccc2ccccc12 (stereo not drawn) [MLS001174634-01] | 1.88 | 103 | 98 |  |  |
| Cc1cc(O)c(CN2CC=C(c3ccccc3)CC2)cc1C(C)C [MLS001176749-01] | 0.335 |  |  |  | viability at 48 h, 1 µM [2]: 106%; viability at 48 h, 3 µM [2]: 105% |
| Clc1ccc2c(NCc3ccccn3)ccnc2c1 [MLS001178012-01] | 2.11 |  |  | 107 |  |
| CCOC(=O)C1=C(C)N=c2sc(=Cc3ccc(OCC(=O)O)cc3)c(=O)n2C1c1cc(OC)c(OC)c(OC)c1 (stereo not drawn) [MLS001178475-01] | 1.88 | 98 |  |  | viability at 48 h [2, 3]: 98% |
| c1ccc2c(NCCc3c[nH]c4ccccc34)c3ccccc3nc2c1 [MLS001195935-01] | 1.88 | 92 | 83 |  |  |
| CCOC(=O)c1c(C)n(-c2ccc(F)cc2)c2ccc(O)cc12 [MLS001195957-01] | 6.68 | 109 | 93 |  |  |
| O=c1c2ccccc2nc(/C=C/c2cc(Br)ccc2O)n1CCCO [MLS001197097-01] | 9.44 |  |  | 103 |  |
| COc1cc(C(=O)Nc2ccc3nc(N4CCN(C)CC4)cc(C)c3c2)cc(OC)c1OC [MLS001197839-01] | 3.35 | 101 | 103 |  |  |
| CCCCC(O)(c1ccc(CC)cc1)C(CN1CCOCC1)c1ccccc1 (stereo not drawn) [MLS001198887-01] | 4.73 | 88 | 85 |  |  |
| CN(CCNC(=O)c1cc2c(-c3ccccc3F)nn(C)c2s1)C1CCCCC1 [MLS001199243-01] | 5.96 | 84 | 84 |  |  |
| CCCCN(C)CCNC(=O)c1cc2c(-c3cccc(OC)c3)nn(C)c2s1 [MLS001199565-01] | 6.68 | 86 | 85 |  |  |
| CN(C)c1cc[n+](CC(=O)c2cccs2)cc1 [MLS001207444-01] | 6.68 |  |  | 101 |  |
| C/C(Cl)=C/Cc1c(C)nc2c(ccc3ccccc32)c1O [MLS001211902-01] | 0.841 | 86 | 92 |  |  |
| CCSc1nc2sc3c(c2c(=O)n1-c1ccccc1)CCN(C)C3 [MLS001212076-01] | 6.68 | 104 | 103 |  |  |
| COc1ccc(C2c3[nH]c4ccccc4c3C[C@H]3C(=O)N(C4CCN(Cc5ccccc5)CC4)CC(=O)N23)c(OC)c1 (stereo partly drawn) [MLS001213218-01] | 2.37 | 106 | 102 |  |  |
| O=c1c(-c2ccc(Br)cc2)coc2c(CN3CCCCC3)c(O)ccc12 [MLS001214902-01] | 2.11 |  |  | 98.2 |  |
| COc1ccccc1C1c2[nH]c3ccccc3c2C[C@H]2C(=O)N(C3CCN(Cc4ccccc4)CC3)CC(=O)N12 (stereo partly drawn) [MLS001215063-01] | 2.11 | 87 | 85 |  |  |
| CCOc1ccccc1C1c2[nH]c3ccccc3c2C[C@H]2C(=O)N(C3CCN(Cc4ccccc4)CC3)CC(=O)N12 (stereo partly drawn) [MLS001215140-01] | 2.37 | 106 | 101 |  |  |
| O=C(NCCCNc1ccnc2cc(Cl)ccc12)c1ccccc1F [MLS001215856-01] | 0.841 | 85 | 88 |  |  |
| C=C(C)COc1ccc(-c2ncnc(C(F)(F)F)c2-c2ccccc2)c(O)c1 [MLS001216193-01] | 2.37 | 104 | 97 |  |  |
| Cc1cccn2c(=O)c3cc(C(=O)NC4CCCC4)c(=N)n(CCc4ccccc4)c3nc12 [MLS001221260-01] | 1.88 | 95 | 92 |  |  |

| Structure (SMILES) | AC50 ([1]; read-out: AC50) [µM] | viability at 48 h, 1 µM [2, 3] [%] | viability at 48 h, 3 µM [2, 3] [%] | viability at 66 h [2, 3] [%] | further results |
| --- | --- | --- | --- | --- | --- |
| COc1cccc(N=C(S)N2CCN(S(=O)(=O)c3ccc(F)cc3)CC2)c1 [MLS001230093-01] | 2.66 | 91 | 89 |  |  |
| Cc1ccc2sc(N3CCN(C(=O)c4ccc([N+](=O)[O-])o4)CC3)nc2c1C [MLS001234068-01] | 5.31 | 111 | 105 |  |  |
| O=C(c1ccc([N+](=O)[O-])o1)N1CCN(c2nc3c(F)cc(F)cc3s2)CC1 [MLS001234228-01] | 5.96 | 103 | 108 |  |  |
| CCc1cccc2sc(N3CCN(C(=O)c4ccc([N+](=O)[O-])o4)CC3)nc12 [MLS001234237-01] | 1.06 | 106 | 115 |  |  |
| O=C1C(c2ccccc2)=[N+](O)c2ccccc21 [MLS001241052-01] | 1.88 |  |  | 97.9 |  |
| CCCCCCSc1ccc([C@H]2N[C@@](Cc3ccccc3)(C(=O)OC)[C@H]3C(=O)N(C)C(=O)[C@@H]23)cc1 [MLS001361994-01] | 4.73 | 112 | 100 |  |  |
| COC(=O)[C@H]1[C@H]2C[C@@H]3c4[nH]c5cc(OC)ccc5c4CCN3C[C@H]2C[C@@H](OC(=O)/C=C/c2cc(OC)c(OC)c(OC)c2)[C@@H]1OC [MLS002153878-01] | 5.31 |  |  |  | viability at 48 h [2]: 106%; viability at 48 h, 1 µM [2]: 106% |
| COC(=O)[C@]1(C)CCC[C@@]2(C)C3CC[C@@]4(C)C[C@]3(CCC21)CC(=O)N4Cc1ccc(OC)cc1 (stereo partly drawn) [MLS002207414-01] | 3.76 |  |  | 96.7 |  |
| Oc1ccc(Cl)cc1CNCc1ccc(C(F)(F)F)cc1 [MLS002207454-01] | 4.22 |  |  | 109 |  |
| Oc1ccc(Cl)cc1CNCc1cccc2ccccc12 [MLS002207460-01] | 0.841 | 103 | 107 |  |  |
| COc1ccc(-c2oc3ccccc3c2C#Cc2cncn2C)cc1 [MLS002402884-01] | 1.06 | 112 | 95 |  |  |
| N#Cc1nc(Nc2cc(F)cc(F)c2)c2ncn(CC(F)F)c2n1 [MLS002471784-01] | 4.73 | 97 | 87 |  |  |
| CCN1CCN(Cc2ccc(NC(=O)c3ccc(C)c(NC(=O)C(=O)c4c[nH]c5ccccc45)c3)cc2C(F)(F)F)CC1 [MLS003105967-01] | 1.5 |  |  | 106 |  |
| CCN1CCN(Cc2ccc(NC(=O)c3cc(NC(=O)C(=O)c4c[nH]c5ccccc45)cc(OC)c3)cc2C(F)(F)F)CC1 [MLS003105970-01] | 0.668 |  |  | 105 |  |
| Cc1cn(-c2cc(C(=O)Nc3ccc(C)c(NC(=O)C(=O)c4c[nH]c5ccccc45)c3)cc(C(F)(F)F)c2)cn1 [MLS003105973-01] | 2.11 | 112 |  |  | viability at 48 h [2, 3]: 112% |
| O=C(CC[S+](=O)([O-])c1cc(Br)cc2c1N(C(=O)C1CC1)CC2)Nc1ccc(Br)cc1F [NCGC00107188-01] |  |  |  | 94 | AC50 [1]: 3.35 µM |
| O=C(CC[S+](=O)([O-])c1cc(Br)cc2c1N(C(=O)C1CC1)CC2)Nc1ccc(C(F)(F)F)cc1 [NCGC00107224-01] |  |  |  | 97.7 | AC50 [1]: 1.33 µM |
| Cc1ccc(NC(=O)CC[S+](=O)([O-])c2cc(Br)cc3c2N(C(=O)C2CC2)CC3)cc1 [NCGC00107230-01] | 2.37 |  |  | 101 |  |
| CCCCN(CC)CCNC(=O)c1cc2c(-c3ccc(Cl)cc3)nn(C)c2s1 [NCGC00108995-01] | 0.668 | 102 | 97 |  |  |
| COCCCNc1nc2cc(OC)c(OC)cc2c2nc(-c3ccccc3)nn12 [NCGC00112853-01] | 0.237 | 105 | 99 |  |  |
| CCc1cccc(-n2c(=O)c3cccnc3n2CC(=O)NCc2ccc(C)cc2)c1 [NCGC00128446-01] |  |  |  |  | AC50 [1]: 1.68 µM; viability [2]: 83.3% |
| CCN(CC)CCCC(C)Nc1cc(C=Cc2ccccc2Cl)nc2cc(Cl)ccc12 (stereo not drawn) [NCGC00160524-01] | 0.841 | 103 | 99 |  |  |
| CC(C)C(=O)OCC(=O)[C@@]12O[C@H](C3CCCCC3)O[C@@H]1C[C@H]1[C@@H]3CCC4=CC(=O)C=C[C@]4(C)[C@H]3[C@@H](O)C[C@@]12C [NCGC00167484-01] | 2.66 | 97 | 94 |  |  |
| CCOC(=O)c1cnc2cc(OCC(C)C)c(OCC(C)C)cc2c1O [NCGC00167562-01] | 0.944 | 83 | 82 |  |  |
| O=C(NCCCN1CCCC1)c1ccc2c(c1)N([S+](=O)([O-])c1ccccc1F)CC2 [NCGC00430450-01] | 9.44 |  |  | 97.4 |  |
| COc1ccc([S+](=O)([O-])Nc2ccc(C)n(CC(=O)Nc3ccccc3)c2=O)cc1 [NCGC00430934-01] | 2.66 |  |  | 103 |  |
